Experimental data: patent US20120302530A1, “23-HYDROXY-BETULINIC ACID DERIVATIVES, PREPARATION METHODS AND USES THEREOF” (priority 2009, published 2012)

Experiments:
786-O = assay: MTT cytotoxicity, human tumor cell strain; type: cell-based; settings: 786-0, Kidney, 72 hours
Text: (§1) We use human tumor cell lines to conduct cytotoxicity analysis. Thirty-one (31) kinds of human tumor cell strains are cultivated in the normal culture medium containing various compounds of zhangnan-5, zhangnan-7 and zhangnan-8. The human tumor lines are bought from ATCC and NCI, and is cultivated with DMEM culture solution containing 10% FBS in 370C couveuse containing 5% CO2. The merged cells are digested by trypsinase, and are counted after washed by the culture solution. 3000˜6000 cells are added into each hole of the 96-hole culture plate, and are hatched for 16 hours or 24 hours. Then, compounds zhangnan-5, zhangnan-7 and zhangnan-8 with different concentrations are added into the holes. Upon further cultivated for another 72 hours, MTT tests are conducted to cells in group treated with drugs and the control group cells, to determine the survival condition of the cells.

A549 = assay: MTT cytotoxicity, human tumor cell strain; type: cell-based; settings: A549, Lung, 72 hours
Text: as §1

AU-565 = assay: MTT cytotoxicity, human tumor cell strain; type: cell-based; settings: AU565, AU-565, Mammary Gland, 72 hours
Text: as §1

CCL-225 = assay: MTT cytotoxicity, human tumor cell strain; type: cell-based; settings: CCL-225, Colon, 72 hours
Text: as §1

CCL-247 = assay: MTT cytotoxicity, human tumor cell strain; type: cell-based; settings: CCL-247, Colo, 72 hours
Text: as §1

CNE-2Z = assay: MTT cytotoxicity, human tumor cell strain; type: cell-based; settings: CNE2Z, Nasopharynx, 72 hours
Text: as §1

Caki-1 = assay: MTT cytotoxicity, human tumor cell strain; type: cell-based; settings: Caki-1, Kidney, 72 hours
Text: as §1

D145 = assay: MTT cytotoxicity, human tumor cell strain; type: cell-based; settings: D145, Prostate, 72 hours
Text: as §1

EC109 = assay: MTT cytotoxicity, human tumor cell strain; type: cell-based; settings: ECa-109, EC109, Esophagus, 72 hours
Text: as §1

G-361 = assay: MTT cytotoxicity, human tumor cell strain; type: cell-based; settings: G-361, Skin (melanoma), 72 hours
Text: as §1

HCT-116 = assay: MTT cytotoxicity, human tumor cell strain; type: cell-based; settings: HCT-116, Colon, 72 hours
Text: as §1

IGROV1 = assay: MTT cytotoxicity, human tumor cell strain; type: cell-based; settings: IGROV-1, IGROV1, Ovary, 72 hours
Text: as §1

LnCAP = assay: MTT cytotoxicity, human tumor cell strain; type: cell-based; settings: Prostate, 72 hours
Text: as §1

LoVo = assay: MTT cytotoxicity, human tumor cell strain; type: cell-based; settings: Colon, 72 hours
Text: as §1

MCF-7 = assay: MTT cytotoxicity, human tumor cell strain; type: cell-based; settings: MCF7, MCF-7, Mammary Gland, 72 hours
Text: as §1

MDA-MB-231 = assay: MTT cytotoxicity, human tumor cell strain; type: cell-based; settings: MDA-MB-231, Mammary Gland, 72 hours
Text: as §1

MDA-MB-435 = assay: MTT cytotoxicity, human tumor cell strain; type: cell-based; settings: MDA-MB-435, Mammary Gland, 72 hours
Text: as §1

Mid PaCa-2 = assay: MTT cytotoxicity, human tumor cell strain; type: cell-based; settings: Mid PaCa-2, Pancreatic Gland, 72 hours
Text: as §1

NCI-H23 = assay: MTT cytotoxicity, human tumor cell strain; type: cell-based; settings: NCI-H23, Lung, 72 hours
Text: as §1

SGC-7901 = assay: MTT cytotoxicity, human tumor cell strain; type: cell-based; settings: SGC-7901, Stomach, 72 hours
Text: as §1

SK-MEL-5 = assay: MTT cytotoxicity, human tumor cell strain; type: cell-based; settings: SK-MEL-5, Skin (melanoma), 72 hours
Text: as §1

SN12C = assay: MTT cytotoxicity, human tumor cell strain; type: cell-based; settings: Kidney, 72 hours
Text: as §1

U-251 = assay: MTT cytotoxicity, human tumor cell strain; type: cell-based; settings: U-251, Malignant Glioma, 72 hours
Text: as §1

[1] = tested on: normal human epithelium of mammary gland (MCF-10a); assay: MTT cytotoxicity, normal cell strain; type: cell-based; settings: for EC50: Homo sapiens, Normal Mammary Gland Epithelial Cell, 72 hours, MTT; for sensitivity of normal cells to the compounds: concentration up to 30 μm, cells can still grow well
[2] = tested on: normal mice fibroblast (MEF); assay: MTT cytotoxicity, normal cell strain; type: cell-based, mouse; settings: for EC50: Normal Mouse Fibroblast, 72 hours, MTT; for sensitivity of normal cells to the compounds: concentration up to 30 μm, cells can still grow well
HIV-1Ada-M = assay: ELISA of HIV-1Ada-M p24 antigen expression in PBMC; type: cell-based; settings: for therapeutic index TI: HIV-1Ada-M p24, PBMC, TI=IC50/EC50; for EC50: Human immunodeficiency virus 1, HIV-1Ada-M, PBMC, 7th day, ELISA, read-out: EC50, inhibition of p24 antigen expression
Text: (4) Quantitative Enzyme Linked Immunoadsorbent method (EIISA) detecting inhibiting effects of compounds to virus HIV-1Ada-Mp24 expression: (see JIANG, Haiou; WANG, Xu; L I, Rurun; CHEN, Dagang; B I, Kunlong, Experimental Research on Recipe Sanhuangsan Capsule Resisting AIDS Virus in Vitro, [J], Shandong Journal of Traditional Chinese medicine, 2005.8 (1):21-26).
Multi-heads sample injector is used to conduct triple dilution to the sample on the 96-hole culture plate. There are 6 dilutions, in which each dilution has 3 duplicate holes, and each hole is 100 ul. […] On the 96-hole flat culture plate, each hole is added with 25 ul virus stock solution containing 1000˜5000 pg/well P24 antigen, which is sufficiently blended. 75 ul mononuclear cell PBMC suspension liquid is added (3×10^5 cell numbers/hole). Upon placing in incubator of 37° C., 5% CO2 to the third day, 100 ul of culture medium is added to each hole. On the 7th day, cell culture supernatant is collected for p24 antigen test. According to p24 kit description, ELISA method is used to measure the virus HIV-1 p24 antigen concentration of each sample cell culture hole supernatant. The following formula is used to calculate the inhibition ratio of sample to virus.
Inhibition ratio of sample to virus p24 antigen (%)=(1−experimental hole OD value/cell+virus control hole OD value)×100%. Reed and Mueneh method is used to calculate EC50 of the test sample, and to further calculate the therapeutic index (TI) (TI=IC50/EC50). […] The positive control SCH-C, 23-hydroxyl-betulinic acid, compounds zhangnan-5, zhangnan-7 and zhangnan-8 all reach an inhibition ratio above 50% within the tested range. The positive control SCH-C inhibits HIV-1Ada-M p24 antigen expression. […] In addition, the inhibition effect to HIV-1Ada-M has significant dose-effect relationship with its concentration.

Compound | EC50 (786-O) [µM] | EC50 (A549) [µM] | EC50 (AU-565) [µM] | EC50 (CCL-225) [µM] | EC50 (CCL-247) [µM] | EC50 (CNE-2Z) [µM] | EC50 (Caki-1) [µM] | EC50 (D145) [µM] | EC50 (EC109) [µM] | EC50 (G-361) [µM] | EC50 (HCT-116) [µM] | EC50 (IGROV1) [µM] | EC50 (LnCAP) [µM] | EC50 (LoVo) [µM] | EC50 (MCF-7) [µM] | EC50 (MDA-MB-231) [µM] | EC50 (MDA-MB-435) [µM] | EC50 (Mid PaCa-2) [µM] | EC50 (NCI-H23) [µM] | EC50 (SGC-7901) [µM] | further results
C=C(C)C1CCC2(C(=O)O)CCC3(C)C(CCC4C5(C)CCC(=O)C(C)(CO)C5CCC43C)C12 (stereo not drawn) [zhangnan-5] | 3.1 | 0.54 | 0.59 | 0.23 | 0.52 | 1.3 | 0.98 | 0.85 | 0.78 | 0.087 | 0.09 | 2.1 | 0.69 | 0.15 | 0.58 | 0.47 | 0.55 | 0.93 | 0.32 | 0.89 | EC50 (SK-MEL-5): 0.093 µM; EC50 (SN12C): 1.3 µM; EC50 (U-251): 0.089 µM; EC50 [1]: > 30 µM; sensitivity of normal cells to the compounds [1]: not sensitive; EC50 [2]: > 30 µM; sensitivity of normal cells to the compounds [2]: not sensitive; therapeutic index TI (HIV-1Ada-M): 3.4; EC50 (HIV-1Ada-M): 0.7 ± 0.19 µM
CC(C)C1CCC2(C(=O)O)CCC3(C)C(CCC4C5(C)CCC(=O)C(C)(CO)C5CCC43C)C12 (stereo not drawn) [zhangnan-7] | 16.8 | 13.1 | 18.2 | 16.1 | 15.6 | 19.2 | 20.1 | 14.8 | 17.9 | 19.3 | 15.1 | 17.4 | 15.6 | 15.2 | 16.9 | 17.5 | 19.3 | 18.9 | 12.8 | 18.5 | EC50 (SK-MEL-5): 18.5 µM; EC50 (SN12C): 17.5 µM; EC50 (U-251): 17.8 µM; EC50 [1]: > 30 µM; sensitivity of normal cells to the compounds [1]: not sensitive; EC50 [2]: > 30 µM; sensitivity of normal cells to the compounds [2]: not sensitive; therapeutic index TI (HIV-1Ada-M): 9923; EC50 (HIV-1Ada-M): 0.0026 ± 0.0005 µM
CC(C)C1CCC2(C(=O)O)CCC3(C)C(CCC4C5(C)CCC(O)C(C)(CO)C5CCC43C)C12 (stereo not drawn) [zhangnan-8, 23-hydroxyl-dihydrobetulinic acid] | 8.1 | 6.9 | 6.8 | 8.6 | 8.2 | 10.2 | 9.2 | 8.4 | 9.5 | 5.3 | 7.8 | 7.2 | 7.8 | 9.6 | 7.8 | 7.2 | 7.9 | 9.4 | 6.7 | 8.9 | EC50 (SK-MEL-5): 4.9 µM; EC50 (SN12C): 7.6 µM; EC50 (U-251): 5.6 µM; EC50 [1]: > 30 µM; sensitivity of normal cells to the compounds [1]: not sensitive; EC50 [2]: > 30 µM; sensitivity of normal cells to the compounds [2]: not sensitive; therapeutic index TI (HIV-1Ada-M): 7.3; EC50 (HIV-1Ada-M): 1.6 ± 0.23 µM
